“And” between values parts separate entries of the source, which are not always exact repeats. Equal values may be shown once. Inconclusive results and toxic doses are left out.

These results are taken from PubChem BioAssay AID330 (DTP/NCI, 2004).

The assay relates to P388 leukemia ip, CD2F1 mice, survival T/C. Description: NCI In Vivo Anticancer Drug Screen. Data for tumor model P388 Leukemia (intraperitoneal) in CD2F1 (CDF1) mice. As to conditions: endpoint: median survival time, higher = longer survival. The procedure: The antitumor activity of compounds was measured in mice bearing transplantable tumors. Survival or tumor size were measured and the results are expressed as the measurement made in the treated group (T) divided by the measurement made in the vehicle treated control group (C). The tumor model used in this assay is P388 Leukemia (intraperitoneal) in CD2F1 (CDF1) mice

Where [1] appears, read: dose: 25.0 mg/kg/injection, schedule: Q01DX009 (ip), vehicle: saline.
Setting [2] is: dose: 50.0 mg/kg/injection, schedule: Q01DX009 (ip), vehicle: saline.
[3] abbreviates: dose: 60.0 mg/kg/injection, schedule: Q01DX005 (ip), vehicle: saline.
[4] abbreviates: dose: 120.0 mg/kg/injection, schedule: Q01DX005 (ip), vehicle: saline.
Where [5] appears, read: dose: 240.0 mg/kg/injection, schedule: Q01DX005 (ip), vehicle: saline.
[6] abbreviates: dose: 100.0 mg/kg/injection, schedule: Q04DX002 (ip), vehicle: saline.
The mark [7] stands for this setting: dose: 50.0 mg/kg/injection, schedule: Q01DX009 (ip), vehicle: saline with Tween-80.
Where [8] appears, read: dose: 100.0 mg/kg/injection, schedule: Q01DX009 (ip), vehicle: saline with Tween-80.
The mark [9] stands for this setting: dose: 200.0 mg/kg/injection, schedule: Q01DX009 (ip), vehicle: saline with Tween-80.
Where [10] appears, read: dose: 100.0 mg/kg/injection, schedule: Q01DX009 (ip), vehicle: saline.
Where [11] appears, read: dose: 12.5 mg/kg/injection, schedule: Q01DX005 (ip), vehicle: saline with Tween-80.
Where [12] appears, read: dose: 50.0 mg/kg/injection, schedule: Q01DX005 (ip), vehicle: saline with Tween-80.
Setting [13] is: dose: 100.0 mg/kg/injection, schedule: Q01DX005 (ip), vehicle: saline with Tween-80.
[14] abbreviates: dose: 200.0 mg/kg/injection, schedule: Q01DX005 (ip), vehicle: saline with Tween-80.
The mark [15] stands for this setting: dose: 100.0 mg/kg/injection, schedule: Q01DX001 (ip), vehicle: saline with Tween-80.
[16] abbreviates: dose: 200.0 mg/kg/injection, schedule: Q01DX001 (ip), vehicle: saline with Tween-80.
Setting [17] is: dose: 400.0 mg/kg/injection, schedule: Q01DX001 (ip), vehicle: saline with Tween-80.

`O=N[O-].O=N[O-].[Co].[NH-]CC[N-]CCO.[NH-]CC[N-]CCO`: the T/C by setting is: (dose: 6.25 mg/kg/injection, schedule: Q01DX009 (ip), vehicle: saline) 95 % of control; (dose: 12.5 mg/kg/injection, schedule: Q01DX009 (ip), vehicle: saline) 99 % of control; under setting [1], 94 % of control; under setting [2], 95 % of control.

With `C=C1C2(OS(=O)(=O)C(F)(F)F)CCC(C2)C1(C)C` (centres undefined), the T/C under setting [3] is 103 % of control, the T/C under setting [4] was 99 % of control and the T/C under setting [5] is 100 % of control.

With `CN(CCO)c1ccc([N+](=O)[O-])c2nonc12`, the T/C (dose: 25.0 mg/kg/injection, schedule: Q04DX002 (ip), vehicle: saline) is 99 % of control and 103 % of control; the T/C (dose: 50.0 mg/kg/injection, schedule: Q04DX002 (ip), vehicle: saline) was 99 % of control (2×) and 115 % of control; the T/C under setting [6] is 100 % of control and 101 % of control.

Turning to `C[n+]1c(-c2ccccc2)c2ccccn2c1Sc1n2ccccc2c(-c2ccccc2)[n+]1C`, the T/C reads like this: (dose: 1.56 mg/kg/injection, schedule: Q01DX009 (ip), vehicle: Klucel (hydroxypropylcellulose) (HPC)) 100 % of control; (dose: 3.12 mg/kg/injection, schedule: Q01DX009 (ip), vehicle: Klucel (hydroxypropylcellulose) (HPC)) 102 % of control; (dose: 6.25 mg/kg/injection, schedule: Q01DX009 (ip), vehicle: Klucel (hydroxypropylcellulose) (HPC)) 90 % of control and 97 % of control.

For the compound `O=c1c(O)c(O)c1=O.[NH2-].[NH2-].[NH2-].[NH2-].[NH2-].[Ru+5]`, the T/C (dose: 10.56 mg/kg/injection, schedule: Q04DX002 (ip), vehicle: suspension in saline) was 121 % of control.

On to `C[Si](C)(C)c1c[nH]c(=O)[nH]c1=O`, for which the T/C is 102 % of control under setting [7]; 98 % of control and 96 % of control under setting [8]; 102 % of control under setting [9].

Turning to `CC1=C(C(=O)N=C(N)C(Cl)(Cl)Cl)SCCO1`, the T/C is 108 % of control (dose: 50.0 mg/kg/injection, schedule: Q01DX005 (ip), vehicle: distilled water + alcohol); 109 % of control (dose: 100.0 mg/kg/injection, schedule: Q01DX005 (ip), vehicle: distilled water + alcohol); 117 % of control (dose: 200.0 mg/kg/injection, schedule: Q01DX005 (ip), vehicle: distilled water + alcohol).

Turning to `C=C(C)C(=O)N(C)C(C)C(=O)OC1CC(=O)N(C)c2cc(cc(OC)c2Cl)C(OC)C(C)=C/C=C/C(OC)C2(O)CC(OC(=O)N2)C(C)C2OC12C` (centres undefined), the T/C (dose: 8.0 micrograms/kg/injection, schedule: Q01DX009 (ip), vehicle: saline) is 172 % of control.

As to `N#C/C(=C\c1cccs1)c1nc(-c2ccc(Cl)cc2)cs1`, the T/C is, setting by setting: under setting [2], 91 % of control; under setting [10], 91 % of control.

For `C=C(CN(C)C)C(=O)c1ccc(OC2OC(COC(C)=O)C(OC(C)=O)C(OC(C)=O)C2OC(C)=O)cc1` (centres undefined), the T/C is, setting by setting: (dose: 6.25 mg/kg/injection, schedule: Q01DX005 (ip), vehicle: saline with Tween-80) 106 % of control; under setting [11], 109 % of control.

Consider `CCOC(=O)CC(=O)c1ccoc1`, for which the T/C reads like this: under setting [12], 110 % of control; under setting [13], 105 % of control; under setting [14], 110 % of control.

Regarding `COc1ccc(C(CC(C)=O)c2cc3c(cc2OC(C)=O)OCO3)cc1` (centres undefined), the T/C is, setting by setting: (dose: 60.0 mg/kg/injection, schedule: Q01DX005 (ip), vehicle: saline with Tween-80) 97 % of control; (dose: 120.0 mg/kg/injection, schedule: Q01DX005 (ip), vehicle: saline with Tween-80) 103 % of control; (dose: 240.0 mg/kg/injection, schedule: Q01DX005 (ip), vehicle: saline with Tween-80) 99 % of control.

With `N#Cc1c(-c2ccc(Br)cc2)c(-c2ccc(Br)cc2)n[nH]c1=O`, the T/C reads like this: under setting [15], 91 % of control; under setting [16], 95 % of control; under setting [17], 95 % of control.

As for `CC(/C=C/c1ccc(O)cc1)=N\NC(N)=S`, the T/C (dose: 3.75 mg/kg/injection, schedule: Q01DX005 (ip), vehicle: Klucel (hydroxypropylcellulose) (HPC)) was 103 % of control; the T/C (dose: 7.5 mg/kg/injection, schedule: Q01DX005 (ip), vehicle: Klucel (hydroxypropylcellulose) (HPC)) is 99 % of control; the T/C (dose: 15.0 mg/kg/injection, schedule: Q01DX005 (ip), vehicle: Klucel (hydroxypropylcellulose) (HPC)) was 99 % of control; the T/C (dose: 30.0 mg/kg/injection, schedule: Q01DX005 (ip), vehicle: Klucel (hydroxypropylcellulose) (HPC)) was 99 % of control and 104 % of control.

With `CCCC1(C)COC(c2ccc(OC)cc2)OC1` (centres undefined), the T/C by setting is: under setting [7], 103 % of control; under setting [15], 109 % of control; under setting [8], 112 % of control; under setting [16], 102 % of control; under setting [9], 103 % of control; under setting [17], 104 % of control.

In the case of `O=C1CC(SC(=S)N2CCCCC2)C(=O)N1c1ccccc1` (centres undefined), the T/C runs as follows: under setting [6], 105 % of control and 98 % of control; (dose: 200.0 mg/kg/injection, schedule: Q04DX002 (ip), vehicle: saline) 100 % of control and 109 % of control; (dose: 400.0 mg/kg/injection, schedule: Q04DX002 (ip), vehicle: saline) 100 % of control and 104 % of control.

`CC(/C=C/c1ccccc1)=N\NC(=S)Nc1ccc(Cl)cc1`: the T/C by setting is: (dose: 100.0 mg/kg/injection, schedule: Q04DX002 (ip), vehicle: Klucel (hydroxypropylcellulose) (HPC)) 108 % of control; (dose: 200.0 mg/kg/injection, schedule: Q04DX002 (ip), vehicle: Klucel (hydroxypropylcellulose) (HPC)) 107 % of control; (dose: 400.0 mg/kg/injection, schedule: Q04DX002 (ip), vehicle: Klucel (hydroxypropylcellulose) (HPC)) 108 % of control.

Turning to `C1Cc2onc(-c3noc4c3CCC4)c2C1`, the T/C is, setting by setting: under setting [3], 104 % of control; under setting [4], 96 % of control; under setting [5], 99 % of control.

With `CN1CCN(C)B1N=S=NB1N(C)CCN1C`, the T/C (dose: 12.5 mg/kg/injection, schedule: Q01DX005 (ip), vehicle: olive oil, sesame oil, peanut oil) was 100 % of control and 105 % of control; the T/C (dose: 25.0 mg/kg/injection, schedule: Q01DX005 (ip), vehicle: olive oil, sesame oil, peanut oil) was 105 % of control and 96 % of control; the T/C (dose: 50.0 mg/kg/injection, schedule: Q01DX005 (ip), vehicle: olive oil, sesame oil, peanut oil) was 104 % of control and 97 % of control; the T/C (dose: 100.0 mg/kg/injection, schedule: Q01DX005 (ip), vehicle: olive oil, sesame oil, peanut oil) was 102 % of control and 103 % of control.

Consider `CSc1nc2ncnn2c(=O)[nH]1`, for which the T/C is 100 % of control (dose: 12.5 mg/kg/injection, schedule: Q01DX009 (ip), vehicle: saline with Tween-80); 99 % of control (dose: 25.0 mg/kg/injection, schedule: Q01DX009 (ip), vehicle: saline with Tween-80); 98 % of control under setting [12]; 100 % of control under setting [7]; 105 % of control under setting [13]; 100 % of control under setting [8]. For the same compound, the T/C under setting [14] is 103 % of control.

For the compound `C=C1C(=O)OC2/C=C(\CO)C3OC3C3OC3(C)CC(OC(=O)/C(=C/C)COC(C)=O)C12` (centres undefined), the T/C is 98 % of control (dose: 25.0 mg/kg/injection, schedule: Q01DX005 (ip), vehicle: Klucel (hydroxypropylcellulose) (HPC)) and 114 % of control (dose: 50.0 mg/kg/injection, schedule: Q01DX005 (ip), vehicle: Klucel (hydroxypropylcellulose) (HPC)).

On to `O=C(c1ccc([N+](=O)[O-])cc1)c1cnc2nc(-c3ccccc3)c(-c3ccccc3)nn12`, for which the T/C reads like this: under setting [11], 99 % of control; (dose: 25.0 mg/kg/injection, schedule: Q01DX005 (ip), vehicle: saline with Tween-80) 97 % of control; under setting [12], 88 % of control and 93 % of control; under setting [13], 89 % of control; under setting [14], 96 % of control.

For the compound `[CH3][Ge]([CH3])=[O]`, the T/C is 102 % of control under setting [2]; 91 % of control under setting [10]; 100 % of control (dose: 200.0 mg/kg/injection, schedule: Q01DX009 (ip), vehicle: saline).

In the case of `C=C1C=[n+]2ccccc2=N1`, the T/C by setting is: under setting [1], 93 % of control; under setting [2], 96 % of control.

With `O=C(Nc1ccc(Cc2ccc(NC(=O)C(c3ccccc3)c3ccccc3)cc2)cc1)C(c1ccccc1)c1ccccc1`, the T/C is 86 % of control under setting [12], 95 % of control under setting [13] and 92 % of control under setting [14].
